The structures appear in SMILES notation. “And” between values parts separate entries of the source, which are not always exact repeats. Identical values can stand only once. Toxic doses and inconclusive results are not listed.

The test system of the assay is P388 leukemia ip, CD2F1 mice, survival T/C. As to the kind of experiment: NCI In Vivo Anticancer Drug Screen. Data for tumor model P388 Leukemia (intraperitoneal) in CD2F1 (CDF1) mice. As to conditions: endpoint: median survival time, higher = longer survival. The essentials:
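Mice carrying the transplanted tumor received test compound or vehicle. Survival was recorded in each group, and the value is the treated-group measurement divided by that of the vehicle-treated control group.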

[1] abbreviates: dose: 50.0 mg/kg/injection, schedule: Q01DX009 (ip), vehicle: saline.
Where [2] appears, read: dose: 100.0 mg/kg/injection, schedule: Q01DX009 (ip), vehicle: saline.
[3] abbreviates: dose: 200.0 mg/kg/injection, schedule: Q01DX009 (ip), vehicle: saline.
Where [4] appears, read: dose: 25.0 mg/kg/injection, schedule: Q01DX005 (ip), vehicle: saline with Tween-80.
Where [5] appears, read: dose: 50.0 mg/kg/injection, schedule: Q01DX005 (ip), vehicle: saline with Tween-80.
[6] abbreviates: dose: 6.25 mg/kg/injection, schedule: Q01DX009 (ip), vehicle: other.
[7] abbreviates: dose: 12.5 mg/kg/injection, schedule: Q01DX009 (ip), vehicle: other.
Setting [8] is: dose: 25.0 mg/kg/injection, schedule: Q01DX009 (ip), vehicle: other.
[9] abbreviates: dose: 100.0 mg/kg/injection, schedule: Q01DX005 (ip), vehicle: saline with Tween-80.
[10] abbreviates: dose: 200.0 mg/kg/injection, schedule: Q01DX005 (ip), vehicle: saline with Tween-80.

As for `Cc1nnsc1-c1n[nH]c(=S)n1N`, the T/C (dose: 25.0 mg/kg/injection, schedule: Q01DX001 (ip), vehicle: Klucel (hydroxypropylcellulose) (HPC)) was 106 % of control; the T/C (dose: 50.0 mg/kg/injection, schedule: Q01DX001 (ip), vehicle: Klucel (hydroxypropylcellulose) (HPC)) was 107 % of control; the T/C (dose: 100.0 mg/kg/injection, schedule: Q01DX001 (ip), vehicle: Klucel (hydroxypropylcellulose) (HPC)) was 101 % of control.
As for `CCOP(=O)(O)C1CCCC(C)[N-]1.CCOP(=O)(O)C1CCCC(C)[N-]1.[Cu+2]` (centres undefined), the T/C by setting is: (dose: 12.5 mg/kg/injection, schedule: Q04DX003 (ip), vehicle: Klucel (hydroxypropylcellulose) (HPC)) 101 % of control; (dose: 25.0 mg/kg/injection, schedule: Q04DX003 (ip), vehicle: Klucel (hydroxypropylcellulose) (HPC)) 112 % of control.
In the case of `COc1cc2cnc(-c3ccc(Cl)c(Cl)c3)c(O)c2cc1OC`, the T/C is 90 % of control under setting [1], 102 % of control under setting [2] and 90 % of control under setting [3].
Turning to `Cn1cnc([N+](=O)[O-])c1Sc1ncccn1`, the T/C was 106 % of control (dose: 25.0 mg/kg/injection, schedule: Q01DX009 (ip), vehicle: saline with Tween-80); 98 % of control (dose: 25.0 mg/kg/injection, schedule: Q01DX009 (ip), vehicle: saline); 98 % of control (dose: 50.0 mg/kg/injection, schedule: Q01DX009 (ip), vehicle: saline with Tween-80); 104 % of control and 108 % of control under setting [1]; 100 % of control (dose: 100.0 mg/kg/injection, schedule: Q01DX009 (ip), vehicle: saline with Tween-80); 108 % of control and 112 % of control under setting [2]. Further, the T/C is 106 % of control (dose: 200.0 mg/kg/injection, schedule: Q01DX009 (ip), vehicle: saline with Tween-80); 114 % of control and 122 % of control under setting [3].
Turning to `Cc1cccc2c(OCC3CO3)cc(=O)[nH]c12` (centres undefined), the T/C was 110 % of control under setting [4]; 114 % of control and 118 % of control under setting [5].
For the compound `COCNC(=S)c1cc(C(=S)NCOC)c(C(=O)NC(C)(C)C)nc1C(=O)NC(C)(C)C`, the T/C runs as follows: (dose: 100.0 mg/kg/injection, schedule: Q04DX002 (ip), vehicle: saline with Tween-80) 92 % of control; (dose: 200.0 mg/kg/injection, schedule: Q04DX002 (ip), vehicle: saline with Tween-80) 98 % of control; (dose: 400.0 mg/kg/injection, schedule: Q04DX002 (ip), vehicle: saline with Tween-80) 93 % of control.
As for `COc1ccc(/C=N/N=c2/sc3ccccc3n2CC(=O)O)cc1`, the T/C (dose: 100.0 mg/kg/injection, schedule: Q01DX001 (ip), vehicle: saline with Tween-80) was 108 % of control and the T/C (dose: 200.0 mg/kg/injection, schedule: Q01DX001 (ip), vehicle: saline with Tween-80) was 87 % of control.
Regarding `O=C(CBr)NC1OC(CO)C(O)C(O)C1O` (centres undefined), the T/C was 99 % of control (dose: 2.5 mg/kg/injection, schedule: Q01DX009 (ip), vehicle: saline); 112 % of control (dose: 5.0 mg/kg/injection, schedule: Q01DX009 (ip), vehicle: saline); 108 % of control (dose: 10.0 mg/kg/injection, schedule: Q01DX009 (ip), vehicle: saline).
With `C/C(=N\NC(=S)SCc1ccccc1)c1ccccn1`, the T/C reads like this: (dose: 3.12 mg/kg/injection, schedule: Q01DX009 (ip), vehicle: Klucel (hydroxypropylcellulose) (HPC)) 108 % of control; (dose: 6.25 mg/kg/injection, schedule: Q01DX009 (ip), vehicle: Klucel (hydroxypropylcellulose) (HPC)) 103 % of control and 110 % of control.
As to `O=S(=O)(O)CCCS(=O)(=O)O`, the T/C was 98 % of control under setting [1], 98 % of control under setting [2] and 101 % of control under setting [3].
In the case of `Cn1c2nc(-[n+]3ccc(-c4ccccc4)cc3)nc-2c([O-])n(C)c1=O`, the T/C is, setting by setting: (dose: 100.0 mg/kg/injection, schedule: Q04DX003 (ip), vehicle: saline) 99 % of control; (dose: 200.0 mg/kg/injection, schedule: Q04DX003 (ip), vehicle: saline) 89 % of control.
As for `O=C(O)CSc1cc2c3ccccc3sc2c2ccccc12`, the T/C (dose: 40.0 mg/kg/injection, schedule: Q01DX005 (ip), vehicle: Klucel (hydroxypropylcellulose) (HPC)) is 100 % of control; the T/C (dose: 80.0 mg/kg/injection, schedule: Q01DX005 (ip), vehicle: Klucel (hydroxypropylcellulose) (HPC)) was 107 % of control; the T/C (dose: 160.0 mg/kg/injection, schedule: Q01DX005 (ip), vehicle: Klucel (hydroxypropylcellulose) (HPC)) was 106 % of control.
For the compound `COc1cccc2c1C(=O)c1c(O)c3c(c(O)c1C2=O)CC(O)(/C=N/NS(=O)(=O)c1ccc(C)cc1)CC3OC1CC(N)C(O)C(C)O1` (centres undefined), the T/C under setting [6] was 153 % of control, the T/C under setting [7] is 178 % of control and the T/C under setting [8] was 93 % of control.
As to `CCC(/C=C/c1ccccc1)=N\NC(=O)c1ccc(C)cc1`, the T/C by setting is: (dose: 6.25 mg/kg/injection, schedule: Q01DX005 (ip), vehicle: saline with Tween-80) 98 % of control; (dose: 12.5 mg/kg/injection, schedule: Q01DX005 (ip), vehicle: saline with Tween-80) 92 % of control; under setting [4], 89 % of control.
Regarding `O=C(Cc1nc2ccccc2[nH]c1=O)c1cccnc1`, the T/C is, setting by setting: (dose: 60.0 mg/kg/injection, schedule: Q01DX005 (ip), vehicle: saline with Tween-80) 99 % of control; (dose: 120.0 mg/kg/injection, schedule: Q01DX005 (ip), vehicle: saline with Tween-80) 94 % of control; (dose: 240.0 mg/kg/injection, schedule: Q01DX005 (ip), vehicle: saline with Tween-80) 98 % of control.
Regarding `CCCCN(CC(O)c1cc2c(c3ccccc13)CCCC2)c1ccc(OC)cc1` (centres undefined), the T/C is, setting by setting: under setting [5], 115 % of control; under setting [9], 101 % of control; under setting [10], 101 % of control.
With `COc1cc2c(cc1C(C)c1cc(C(C)(C)C)c(O)c(C(C)(C)C)c1)OCO2` (centres undefined), the T/C reads like this: under setting [5], 104 % of control; under setting [9], 100 % of control; under setting [10], 94 % of control.
Turning to `COc1ccc(C2CC(=O)c3c(O)cc(OC4OC(CO)C(O)C(O)C4OC4OC(C)C(O)C(O)C4O)cc3O2)cc1O` (centres undefined), the T/C under setting [5] is 102 % of control, the T/C under setting [9] was 100 % of control and the T/C under setting [10] is 92 % of control.
In the case of `N#Cc1ccc(OC(=O)Nc2ccc(Cl)c(Cl)c2)cc1`, the T/C was 118 % of control (dose: 60.0 mg/kg/injection, schedule: Q01DX005 (ip), vehicle: Klucel (hydroxypropylcellulose) (HPC)); 107 % of control (dose: 120.0 mg/kg/injection, schedule: Q01DX005 (ip), vehicle: Klucel (hydroxypropylcellulose) (HPC)); 115 % of control (dose: 240.0 mg/kg/injection, schedule: Q01DX005 (ip), vehicle: Klucel (hydroxypropylcellulose) (HPC)).
As for `c1ccc([P+](CCN2Cc3ccccc3C2)(c2ccccc2)c2ccccc2)cc1`, the T/C (dose: 0.78 mg/kg/injection, schedule: Q01DX009 (ip), vehicle: other) was 119 % of control; the T/C (dose: 0.78 mg/kg/injection, schedule: Q01DX009 (ip), vehicle: saline) was 101 % of control; the T/C (dose: 1.56 mg/kg/injection, schedule: Q01DX009 (ip), vehicle: other) is 110 % of control; the T/C (dose: 1.56 mg/kg/injection, schedule: Q01DX009 (ip), vehicle: saline) was 101 % of control; the T/C (dose: 3.12 mg/kg/injection, schedule: Q01DX009 (ip), vehicle: saline) is 107 % of control; the T/C (dose: 3.13 mg/kg/injection, schedule: Q01DX009 (ip), vehicle: other) was 114 % of control. Besides, the T/C is, setting by setting: (dose: 3.13 mg/kg/injection, schedule: Q01DX009 (ip), vehicle: saline) 105 % of control; under setting [6], 118 % of control; (dose: 6.25 mg/kg/injection, schedule: Q01DX009 (ip), vehicle: saline) 109 % of control and 119 % of control; under setting [7], 108 % of control; (dose: 12.5 mg/kg/injection, schedule: Q01DX009 (ip), vehicle: saline) 120 % of control and 122 % of control; under setting [8], 88 % of control.
In the case of `O=C(NC(Cc1ccccc1)C(=O)O)OCC1c2ccccc2-c2ccccc21` (centres undefined), the T/C runs as follows: (dose: 50.0 mg/kg/injection, schedule: Q01DX005 (ip), vehicle: Klucel (hydroxypropylcellulose) (HPC)) 108 % of control; (dose: 100.0 mg/kg/injection, schedule: Q01DX005 (ip), vehicle: Klucel (hydroxypropylcellulose) (HPC)) 105 % of control.
On to `CC[n+]1c(/C=C/c2ccc(N(CCC(=O)O)CCC(=O)O)cc2C)sc2ccccc21`, for which the T/C by setting is: (dose: 12.5 mg/kg/injection, schedule: Q04DX003 (ip), vehicle: saline with Tween-80) 99 % of control; (dose: 25.0 mg/kg/injection, schedule: Q04DX003 (ip), vehicle: saline with Tween-80) 95 % of control; (dose: 50.0 mg/kg/injection, schedule: Q04DX003 (ip), vehicle: saline with Tween-80) 100 % of control.
